According to publication PMC11480993, “Combining Data-Driven and Structure-Based Approaches in Designing Dual PARP1-BRD4 Inhibitors for Breast Cancer Treatment” (Journal of Chemical Information and Modeling, 2024):
Read-outs that look alike come from different tables or passages of the source.

How the values were obtained:
BRD4 [1] = details: cited from earlier work
MDA-MB-231 = test system: MDA-MB-231; set-up: method as in PMID 34813314, PMID 35091172, PMID 33532187, PMID 35442700, PMID 24481311; details: 3 days; breast cancer ref 15-19; cited from earlier work
MDA-MB-468 = test system: MDA-MB-468; set-up: method as in PMID 34813314, PMID 35091172, PMID 33532187, PMID 35442700, PMID 24481311; details: 3 days; breast cancer ref 15-19; cited from earlier work
PARP1 [2] = test system: PARP1; set-up: method as in PMID 34813314, PMID 35091172, PMID 33532187, PMID 35442700, PMID 24481311; details: known dual PARP1-BRD4 inhibitors ref 15-19; cited from earlier work
[3] = Solubility observed during activity testing; format: physicochemical; details: compared with HF2
Description: The inhibitory effects of both enzymes were measured for HF1 and HF2. […] The large discrepancy in BRD4 activities could be attributed to the nonplanar scaffold of HF1, which appears to fit more effectively into the hydrophobic environment formed by Val87, Phe83, and Ile146 (Figure 5B, right). […] Before proceeding further, we made the decision to examine PJ34, a potent and nonselective PARP1 inhibitor,[13] to assess its impact on BRD4 inhibition. […] Given the strong PARP1 activity and relatively low micromolar BRD4 activity of PJ34 relative to HF1 and HF2, we contemplated whether substituting PJ34’s scaffold with that of HF1 could synergistically enhance BRD4 affinity while maintaining strong PARP1 affinity.

PARP1 [4] = target: PARP1 (Homo sapiens, UniProt P09874); assay: In vitro PARP1 enzymatic activity (ELISA, biotinylated NAD+, luminescence); format: biochemical
Description: The inhibition of the tested compounds on PARP1 enzymatic activity was determined by ELISA in 96-well plates. Each well was precoated with histone (20 μg/mL) diluted in 100 μL of PBS buffer (10 mM NaH2PO4, 100 mM Na2HPO4, 150 mM NaCl, pH 7.4) by incubation at 4 °C overnight. […] The reaction was initiated by the addition of 20 μL of PARP1 (50 ng/well) at 30 °C for 1 h. Then the reaction solution was added to 50 μL of streptavidin conjugated HRP. The assay was performed at 30 °C for an additional 30 min. Finally, 100 μL of solution (H2O2 and luminol in citrate buffer 0.1 M, pH 5.4) was added and luminescent signal was measured using a multiwell spectrophotometer (Molecular Devices SpectraMax M5 microplate reader).

BRD4 [5] = target: BRD4 (Homo sapiens, UniProt O60885); assay: BRD TR-FRET assay, BRD4; format: binding
Description: The assay was performed by TR-FRET technology using a BRD and its corresponding ligand (BET). The TR-FRET signal from the assay is correlated with the amount of ligand binding to the bromodomain. All of the binding reactions were conducted at room temperature. The 20 μL reaction mixture in Assay Buffer contains either bromodomains, BET Ligand, and the indicated amount of inhibitor. For the negative control (blank), 5 μL of the assay buffer was added instead of the BET ligand. The reaction mixture was incubated for 120 min. After the incubation with the ligand, the TR-FRET signal was measured using a Tecan Infinite M1000 plate reader.

MDA-MB-231 cells = assay: Cell viability (MTT), MDA-MB-231; format: cell-based; details: Homo sapiens, MDA-MB-231, 96 h; 4-day treatment, wild-type BRCA
Description: (§1) MDA-MB-231, MDA-MB-436, and MCF-7 cells were seeded into 96-well plates with the number of 5 × 10^3 in each cell and allowed to incubate for 24 h. Subsequently, various concentrations of the test compounds (ranging from 100 to 0.78 μM with twice gradient dilution) were introduced. After 4 days of incubation, MTT solution was applied, and the cells were incubated for an additional 4 h. Following the removal of the supernatant, the violet crystals were dissolved in 200 μL of DMSO, and the absorbance was measured at 570 nm.

MCF-7 cells = assay: Cell viability (MTT), MCF-7; format: cell-based; details: Homo sapiens, MCF7, 96 h; 4-day treatment, wild-type BRCA
Description: as §1

Capan-1 cell = test system: Capan-1 cell; set-up: method as in PMID 34813314, PMID 35091172, PMID 33532187, PMID 35442700, PMID 24481311; details: 4 days; pancreatic cancer ref 15-19; cited from earlier work
CFPAC-1 cell = test system: CFPAC-1 cell; set-up: method as in PMID 34813314, PMID 35091172, PMID 33532187, PMID 35442700, PMID 24481311; details: 4 days; pancreatic cancer ref 15-19; cited from earlier work
SW1990 cell = test system: SW1990 cell; set-up: method as in PMID 34813314, PMID 35091172, PMID 33532187, PMID 35442700, PMID 24481311; details: 4 days; pancreatic cancer ref 15-19; cited from earlier work
BRD4 [6] = assay: Western blot, BRD4 expression in MCF-7 cells; format: cell-based; details: MCF-7, 48 h treatment
Description: (§2) Following a 48 h treatment, cellular proteins were extracted using RIPA cell lysis buffer containing protease and phosphatase inhibitor cocktail. The protein concentration was assessed by using a BCA assay. Subsequently, equal amounts of these proteins were loaded onto an SDS-PAGE gel and transferred onto a PVDF membrane. The protein-loaded membrane was then blocked using a commercial blocking solution (Beyotime, China) and sequentially incubated with primary and secondary antibodies. Protein bands were visualized using an ECL chemiluminescence kit and quantified using ImageJ software.

PARP1 [7] = assay: Western blot, PARP1 expression in MCF-7 cells; format: cell-based; details: MCF-7, 48 h treatment
Description: as §2

MDA-MB-436 cells = assay: Cell viability (MTT), MDA-MB-436; format: cell-based; details: Homo sapiens, MDA-MB-436, 96 h; 4-day treatment, BRCA mutant
Description: as §1

[8] = known dual PARP1-BRD4 inhibitors ref 15-19

Chain of PARP1 (Homo sapiens, UniProt P09874) (P09874 whole entry): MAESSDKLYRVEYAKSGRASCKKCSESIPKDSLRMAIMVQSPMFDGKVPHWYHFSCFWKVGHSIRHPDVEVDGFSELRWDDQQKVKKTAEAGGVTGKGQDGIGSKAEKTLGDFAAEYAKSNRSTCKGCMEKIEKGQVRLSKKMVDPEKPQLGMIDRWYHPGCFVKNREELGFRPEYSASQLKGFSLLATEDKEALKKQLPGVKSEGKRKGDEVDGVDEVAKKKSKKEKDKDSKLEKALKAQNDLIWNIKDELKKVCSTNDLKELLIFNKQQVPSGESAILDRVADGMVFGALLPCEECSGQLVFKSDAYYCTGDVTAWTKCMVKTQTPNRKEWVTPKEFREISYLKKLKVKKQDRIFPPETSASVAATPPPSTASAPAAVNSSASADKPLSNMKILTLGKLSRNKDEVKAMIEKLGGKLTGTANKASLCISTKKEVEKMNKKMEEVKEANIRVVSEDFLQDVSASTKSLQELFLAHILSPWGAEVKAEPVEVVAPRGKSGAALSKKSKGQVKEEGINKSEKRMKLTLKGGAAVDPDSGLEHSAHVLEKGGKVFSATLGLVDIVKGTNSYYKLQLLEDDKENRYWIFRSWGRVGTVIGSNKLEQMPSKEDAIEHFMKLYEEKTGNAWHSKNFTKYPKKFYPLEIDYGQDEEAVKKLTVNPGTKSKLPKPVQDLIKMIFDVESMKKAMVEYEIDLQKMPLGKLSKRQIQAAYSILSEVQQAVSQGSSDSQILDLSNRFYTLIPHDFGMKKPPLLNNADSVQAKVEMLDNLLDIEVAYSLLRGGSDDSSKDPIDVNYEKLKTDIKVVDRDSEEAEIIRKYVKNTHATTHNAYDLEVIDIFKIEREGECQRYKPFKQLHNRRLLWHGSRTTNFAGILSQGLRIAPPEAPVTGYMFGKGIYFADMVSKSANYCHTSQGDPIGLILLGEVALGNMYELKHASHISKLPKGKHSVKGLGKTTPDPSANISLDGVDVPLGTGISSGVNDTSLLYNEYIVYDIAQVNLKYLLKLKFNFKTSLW

COc1cc(OC)c2c(=O)[nH]c(-c3ccc(OCCOc4ccccc4C(N)=O)cc3)nc2c1 [ADTL-BPI1901]
IC50 (BRD4 [1]; [8]): 400 nM | IC50 (MDA-MB-231): 15600 ± 1720 nM | IC50 (MDA-MB-468): 6420 ± 1310 nM | IC50 (PARP1 [2]): 4600 nM

COc1cc(OC)c2c(=O)[nH]c(-c3cccc(Cc4n[nH]c(=O)c5ccccc45)c3)nc2c1 [BP44]
IC50 (BRD4 [1]; [8]): 238 nM | IC50 (MDA-MB-231): 6610 ± 580 nM | IC50 (MDA-MB-468): 3010 ± 830 nM | IC50 (PARP1 [2]): 197 nM

Cc1cc(S(=O)(=O)Nc2ccc3[nH]c(=O)c4c(c3c2)CCCC4)ccc1F [HF1, 4-fluoro-3-methyl-N-(6-oxo-5,6,7,8,9,10-hexahydrophenanthridin-2-yl)benzenesulfonamide]
solubility during activity testing [3]: higher solubility | IC50 (PARP1 [4]): 94 nM | IC50 (BRD4 [5]): 3560 ± 951 nM | BRD4 potency relative to HF2 (BRD4 [5]; more potent than HF2): 10 times | IC50 (BRD4 [5]; value of the text): 3500 nM | IC50 (MDA-MB-231 cells): 31900 nM | IC50 (MCF-7 cells): 11400 nM

Cc1cc(S(=O)(=O)Nc2ccc3[nH]c(=O)c4ccccc4c3c2)ccc1F [HF2]
IC50 (PARP1 [4]): 339 ± 86 nM | IC50 (BRD4 [5]): 32600 ± 6340 nM

CN(C)CC(=O)Nc1ccc2[nH]c(=O)c3c(c2c1)CCCC3 [HF3, 2-(dimethylamino)-N-(6-oxo-5,6,7,8,9,10-hexahydrophenanthridin-2-yl)acetamide]
IC50 (PARP1 [4]): 16 nM | IC50 (BRD4 [5]): 28800 ± 6990 nM | IC50 (BRD4 [5]; value of the text): ~28000 nM

CCc1cc2cc(NC(=O)CN(C)C)ccc2[nH]c1=O [HF5, 2-(dimethylamino)-N-(3-ethyl-2-oxo-1,2-dihydroquinolin-6-yl)acetamide]
IC50 (PARP1 [4]): 736 nM | IC50 (BRD4 [5]): 34300 ± 7900 nM | IC50 (BRD4 [5]; value of the text): ~34300 nM

Cc1noc(C)c1-c1ccc2c(c1)C(c1ccccc1)N(Cc1nc3c(C(N)=O)cccc3[nH]1)C(=O)N2C (stereo not shown) [III-7]
IC50 (Capan-1 cell): 1710 ± 210 nM | IC50 (CFPAC-1 cell): 1310 ± 110 nM | IC50 (BRD4 [1]; [8]): 202 nM | IC50 (PARP1 [2]): 49 nM | IC50 (SW1990 cell): 1340 ± 160 nM

CC[C@@H]1C(=O)N(C)c2cnc(N(C)c3ccc(-c4nc5c(C(N)=O)cccc5[nH]4)cc3OC)nc2N1C1CCCC1 [III-16]
IC50 (BRD4 [1]; [8]): 101 nM | IC50 (PARP1 [2]): 13 nM | IC50 (SW1990 cell): 980 ± 130 nM

Cc1sc2c(c1C)C(c1ccc(Cl)cc1)=N[C@@H](CC(=O)OC(C)(C)C)c1nnc(C)n1-2 [JQ1, reference compound]
BRD4 expression (BRD4 [6]): significantly enhances its levels | PARP1 expression (PARP1 [7]): significant increase | IC50 (MDA-MB-436 cells): 4700 ± 1900 nM | IC50 (MDA-MB-231 cells): 1200 ± 400 nM | IC50 (MCF-7 cells): 900 ± 100 nM

O=C(c1cc(Cc2n[nH]c(=O)c3ccccc23)ccc1F)N1CCN(C(=O)C2CC2)CC1 [Olaparib, olaparib, reference compound]
IC50 (MDA-MB-436 cells): 2200 nM | IC50 (MDA-MB-231 cells): 13900 ± 2600 nM | IC50 (MCF-7 cells): 27200 ± 3500 nM

COc1ccccc1S(=O)(=O)Nc1ccc2c(c1)CN(C)C(=O)N2 [PFI-1, reference compound]
inhibition at 10 µM (PARP1 [4]; 10 μM, read-out: PARP1 inhibition rate): 10% | IC50 (BRD4 [1]): 220 nM

CN(C)CC(=O)Nc1ccc2[nH]c(=O)c3ccccc3c2c1 [PJ34, 2-(dimethylamino)-N-(6-oxo-5,6-dihydrophenanthridin-2-yl)acetamide, reference compound]
IC50 (BRD4 [5]): 2070 ± 588 nM

COc1cc(OC)c2c(=O)[nH]c(-c3cc(C)c(OCCO)c(C)c3)nc2c1 [RVX-208, apabetalone, reference compound]
activity against PARP1 (PARP1 [4]; at 10 μM): no activity
